Source: patent US20240228488A1 (TAKEDA PHARMACEUTICAL COMPANY LIMITED, priority 2021, published 2024)

Key:
[1] = molecular target: human activated kallikrein enzyme (Homo sapiens, UniProt P03952); experiment: Plasma kallikrein inhibition, fluorogenic PFR-AMC substrate, 500 pM activated kallikrein format; type: biochemical; conditions: 500 pM activated kallikrein, 300 uM PFR-AMC, 30 min preincubation, 10 min reaction; read-out: Primary Dose Response Assay: Average EC50
Summary of the method: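 500 pM enz + cpd, 30 min RT preinc; start w/ PFR-AMC 300 uM; 10 min RT; Ex380/Em460. Buffer: Tris 20 mM pH 7.5, EDTA 1 mM, NaCl 150 mM, PEG-400 0.1%, Triton 0.1%. EC50.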

[2] = molecular target: T1, plasma kallikrein (Homo sapiens, UniProt P03952); experiment: Neat human plasma assay, FXIIa contact pathway-activated, PFR-AMC substrate; type: biochemical; conditions: citrated human plasma 78% final, 10 nM human FXIIa, 100 μM PFR-AMC; read-out: Human Plasma Assay: IC90
T1 construct: from tissue
Method: To analyze inhibition of plasma kallikrein in an ex vivo setting, the potency of compounds was measure in contact pathway-activated plasma assays. In a fluorogenic peptide substrate assay, test compounds dissolved in DMSO were added to sodium citrate collected human or rat plasma in a 96-well microplate. Alternatively, citrated plasma was collected from rats administered the compounds orally or by IV. 10 nM of human FXIIa (Enzyme Research Laboratories) diluted in pKal buffer (20 mM Tris-HCl, pH 7.5, 150 mM NaCl, 1 mM EDTA, 0.1% PEG-8000, and 0.1% Triton X-100) was added to the plasma, followed by the 100 μM of the profluorescent, synthetic plasma kallikrein substrate PFR-AMC (also diluted in pKal buffer). Final plasma concentration in the reaction was 78%. Fluorescence was immediately monitored by excitation/emission wavelengths of 360 nm/480 nm respectively over a period of 5 minutes in a microplate reader. The resulting linear increase in fluorescence emission (reflecting pKal proteolysis of PFR-AMC substrate) was fit to extract a proteolytic rate (fluorescent units over time), and this rate was subsequently plotted against compound inhibitor concentration. Resulting plots were fit to a standard 4-parameter IC50/IC90 equation to determine min/max values, IC50/90, and slope. All experimental steps were performed at room temperature. Table 50 provides results of the assay.

T1 sequence (P03952 391-638 limits assumed): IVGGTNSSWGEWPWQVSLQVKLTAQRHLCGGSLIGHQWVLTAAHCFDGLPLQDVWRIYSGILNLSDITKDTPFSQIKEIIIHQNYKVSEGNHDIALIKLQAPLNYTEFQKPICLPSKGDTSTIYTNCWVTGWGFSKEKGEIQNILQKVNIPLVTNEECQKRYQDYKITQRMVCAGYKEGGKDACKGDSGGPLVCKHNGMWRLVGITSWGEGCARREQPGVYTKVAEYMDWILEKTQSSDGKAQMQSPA
T1 sequence (P03952 20-390 partner limits assumed): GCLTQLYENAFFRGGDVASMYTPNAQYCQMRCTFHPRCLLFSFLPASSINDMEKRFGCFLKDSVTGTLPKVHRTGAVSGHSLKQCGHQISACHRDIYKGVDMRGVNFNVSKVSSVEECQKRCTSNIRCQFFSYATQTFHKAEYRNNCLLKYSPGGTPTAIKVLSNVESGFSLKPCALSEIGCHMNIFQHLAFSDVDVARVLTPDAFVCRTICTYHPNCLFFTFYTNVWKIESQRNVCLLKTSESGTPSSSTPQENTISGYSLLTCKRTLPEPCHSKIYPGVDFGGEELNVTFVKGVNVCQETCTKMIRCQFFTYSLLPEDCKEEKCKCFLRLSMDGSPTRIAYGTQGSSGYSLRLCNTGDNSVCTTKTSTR
human activated kallikrein enzyme, sequence (P03952 391-638 limits assumed): as the sequence (P03952 391-638 limits assumed) above
human activated kallikrein enzyme, sequence (P03952 20-390 partner limits assumed): as the sequence (P03952 20-390 partner limits assumed) above

SMILES	EC50 [1] [µM]	IC90 [2] [µM]
Cc1ccc(C#N)c([C@H]2C[C@@H]2C(=O)Nc2cc(NCc3cn4cc(C5CC5)cc(N5CC(=O)N(C)C5=O)c4n3)ncn2)n1 (racemic) [Example I-166, rac-(1S*,2S*)-2-(3-cyano-6-methylpyridin-2-yl)-N-(6-(((6-cyclopropyl-8-(3-methyl-2,4-dioxoimidazolidin-1-yl)imidazo[1,2-a]pyridin-2-yl)methyl)amino)pyrimidin-4-yl)cyclopropane-1-carboxamide]	< 0.001	0.4 to 1.5
Cc1ccnc([C@H]2C[C@@H]2C(=O)Nc2cc(NCc3cn4cc(C5CC5)cc(N5CC6(COC6)OC5=O)c4n3)ncn2)n1 [Example 372, (1S,2S)-N-(6-(((6-cyclopropyl-8-(6-oxo-2,5-dioxa-7-azaspiro[3.4]octan-7-yl)imidazo[1,2-a]pyridin-2-yl)methyl)amino)pyrimidin-4-yl)-2-(4-methylpyrimidin-2-yl)cyclopropane-1-carboxamide]	< 0.001	< 0.4
Cc1ccnc([C@H]2C[C@@H]2C(=O)Nc2ncc(F)c(NCc3cn4cc(C5CC5)cc(N5CC(=O)N(C)C5=O)c4n3)n2)n1 (racemic) [Example 517, rac-(1S*,2S*)-N-(4-(((6-cyclopropyl-8-(3-methyl-2,4-dioxoimidazolidin-1-yl)imidazo[1,2-a]pyridin-2-yl)methyl)amino)-5-fluoropyrimidin-2-yl)-2-(4-methylpyrimidin-2-yl)cyclopropane-1-carboxamide]	< 0.001	< 0.4
O=C(Nc1cc(NCc2cn3cc(C4CC4)cc(CCCO)c3n2)ccn1)[C@H]1C[C@@H]1c1cccc(Cl)c1 [Example 291, (1S,2S)-2-(3-chlorophenyl)-N-(4-(((6-cyclopropyl-8-(3-hydroxypropyl)imidazo[1,2-a]pyridin-2-yl)methyl)amino)pyridin-2-yl)cyclopropane-1-carboxamide]	< 0.001	1.5 to 10
Cc1ccnc([C@H]2C[C@@H]2C(=O)Nc2ncc(C(F)(F)F)c(NCc3cn4cc(C5CC5)cc(N5CC(=O)N(C)C5=O)c4n3)n2)n1 (racemic) [Example 518, rac-(1S*,2S*)-N-(4-(((6-cyclopropyl-8-(3-methyl-2,4-dioxoimidazolidin-1-yl)imidazo[1,2-a]pyridin-2-yl)methyl)amino)-5-(trifluoromethyl)pyrimidin-2-yl)-2-(4-methylpyrimidin-2-yl)cyclopropane-1-carboxamide]	< 0.001	< 0.4
CN1C(=O)CN(c2cc(C3CC3)cn3cc(CNc4cc(NC(=O)[C@@H]5[C@@H](c6cccc(Cl)c6)C5(F)F)ncn4)nc23)C1=O (racemic) [Example 543, rac-(1S*,3S*)-3-(3-chlorophenyl)-N-(6-(((6-cyclopropyl-8-(3-methyl-2,4-dioxoimidazolidin-1-yl)imidazo[1,2-a]pyridin-2-yl)methyl)amino)pyrimidin-4-yl)-2,2-difluorocyclopropane-1-carboxamide]	0.001 to 0.01	1.5 to 10
Cc1ccnc([C@H]2C[C@@H]2C(=O)Nc2nccc(N3C[C@@H](O)C[C@@H]3c3cn4cc(C5CC5)cc(N5CC(=O)N(C)C5=O)c4n3)n2)n1 (relative stereo) [Example 541, rac-(1S*,2S*)—N-(4-((2R,4S)-2-(6-cyclopropyl-8-(3-methyl-2,4-dioxoimidazolidin-1-yl)imidazo[1,2-a]pyridin-2-yl)-4-hydroxypyrrolidin-1-yl)pyrimidin-2-yl)-2-(4-methylpyrimidin-2-yl)cyclopropane-1-carboxamide]	< 0.001	0.4 to 1.5
Cc1ccnc([C@H]2C[C@@H]2C(=O)Nc2cc(N(C)Cc3cn4cc(C5CC5)cc(N5CC(=O)N(C)C5=O)c4n3)cnn2)n1 [Example I-254, (1S,2S)-N-(5-(((6-cyclopropyl-8-(3-methyl-2,4-dioxoimidazolidin-1-yl)imidazo[1,2-a]pyridin-2-yl)methyl)(methyl)amino)pyridazin-3-yl)-2-(4-methylpyrimidin-2-yl)cyclopropane-1-carboxamide]	< 0.001	< 0.4
CN1CC2(C1)CN(c1cc(C3CC3)cn3cc(CNc4ccnc(NC(=O)[C@H]5C[C@@H]5c5cccc(Cl)c5)c4)nc13)C2 [Example 140, (1S,2S)-2-(3-chlorophenyl)-N-(4-(((6-cyclopropyl-8-(6-methyl-2,6-diazaspiro[3.3]heptan-2-yl)imidazo[1,2-a]pyridin-2-yl)methyl)amino)pyridin-2-yl)cyclopropane-1-carboxamide]	< 0.001	0.4 to 1.5
Cc1ccnc([C@H]2C[C@@H]2C(=O)Nc2cc(N[C@H](C)c3cn4cc(C5CC5)cc(N5CC(=O)N(C)C5=O)c4n3)nc(OCCN(C)C)n2)n1 [Example 276, (1S,2S)—N-(6-(((R)-1-(6-cyclopropyl-8-(3-methyl-2,4-dioxoimidazolidin-1-yl)imidazo[1,2-a]pyridin-2-yl)ethyl)amino)-2-(2-(dimethylamino)ethoxy)pyrimidin-4-yl)-2-(4-methylpyrimidin-2-yl)cyclopropane-1-carboxamide]	< 0.001	< 0.4
CN1CN(c2cc(C3CC3)cn3cc(CNc4cc(NC(=O)[C@H]5C[C@@H]5c5cccc(Cl)c5)ncn4)nc23)CC1=O [Example I-9, (1S,2S)-2-(3-chlorophenyl)-N-(6-(((6-cyclopropyl-8-(3-methyl-4-oxoimidazolidin-1-yl)imidazo[1,2-a]pyridin-2-yl)methyl)amino)pyrimidin-4-yl)cyclopropane-1-carboxamide]	0.001 to 0.01	1.5 to 10
Cc1csc([C@H]2C[C@@H]2C(=O)Nc2cc(NCc3cn4cc(C5CC5)cc(N5CC(=O)N(C)C5=O)c4n3)ncn2)n1 (racemic) [Example 446, rac-(1S*,2S*)—N-(6-(((6-cyclopropyl-8-(3-methyl-2,4-dioxoimidazolidin-1-yl)imidazo[1,2-a]pyridin-2-yl)methyl)amino)pyrimidin-4-yl)-2-(4-methylthiazol-2-yl)cyclopropane-1-carboxamide]	< 0.001	0.4 to 1.5
Cc1ccnc([C@H]2C[C@@H]2C(=O)Nc2nc(NCc3cn4cc(C5CC5)cc(N5CC(=O)N(C)C5=O)c4n3)nc(C3CC3)n2)n1 (racemic) [Example 523, rac-(1S*,2S*)-N-(4-cyclopropyl-6-(((6-cyclopropyl-8-(3-methyl-2,4-dioxoimidazolidin-1-yl)imidazo[1,2-a]pyridin-2-yl)methyl)amino)-1,3,5-triazin-2-yl)-2-(4-methylpyrimidin-2-yl)cyclopropane-1-carboxamide]	< 0.001	< 0.4
Cc1ccnc([C@H]2C[C@@H]2C(=O)Nc2cc(NCc3cn4cc(C5CC5)cc(N5CCCC5=O)c4n3)ncn2)n1 (racemic) [Example 389, rac-(1S*,2S*)-N-(6-(((6-cyclopropyl-8-(2-oxopyrrolidin-1-yl)imidazo[1,2-a]pyridin-2-yl)methyl)amino)pyrimidin-4-yl)-2-(4-methylpyrimidin-2-yl)cyclopropane-1-carboxamide]	< 0.001	0.4 to 1.5
O=C(Nc1cc(NCc2cn3cc(C4CC4)ccc3n2)ccn1)[C@H]1C[C@@H]1c1cc(Cl)ccn1 (single isomer, unassigned) [Example I-270, rac-(1S*,2S*)-2-(4-chloropyridin-2-yl)-N-(4-(((6-cyclopropylimidazo[1,2-a]pyridin-2-yl)methyl)amino)pyridin-2-yl)cyclopropane-1-carboxamide]	< 0.001	1.5 to 10
